Assay results published in ChEMBL document CHEMBL4043085, “Anisucoumaramide, a Bioactive Coumarin from Clausena anisum-olens” (J Nat Prod, 2017).

Columns and labels:
[1] = biological target: T1, Amine oxidase [flavin-containing] A (Homo sapiens, UniProt P21397); assay: Inhibition of human recombinant MAOA assessed as reduction in H2O2 production from p-tyramine at 100 uM incubated for 15 mins by Amplex red reagent based fluorimetric method; conditions: 0.25 h
T1 sequence (P21397 whole entry): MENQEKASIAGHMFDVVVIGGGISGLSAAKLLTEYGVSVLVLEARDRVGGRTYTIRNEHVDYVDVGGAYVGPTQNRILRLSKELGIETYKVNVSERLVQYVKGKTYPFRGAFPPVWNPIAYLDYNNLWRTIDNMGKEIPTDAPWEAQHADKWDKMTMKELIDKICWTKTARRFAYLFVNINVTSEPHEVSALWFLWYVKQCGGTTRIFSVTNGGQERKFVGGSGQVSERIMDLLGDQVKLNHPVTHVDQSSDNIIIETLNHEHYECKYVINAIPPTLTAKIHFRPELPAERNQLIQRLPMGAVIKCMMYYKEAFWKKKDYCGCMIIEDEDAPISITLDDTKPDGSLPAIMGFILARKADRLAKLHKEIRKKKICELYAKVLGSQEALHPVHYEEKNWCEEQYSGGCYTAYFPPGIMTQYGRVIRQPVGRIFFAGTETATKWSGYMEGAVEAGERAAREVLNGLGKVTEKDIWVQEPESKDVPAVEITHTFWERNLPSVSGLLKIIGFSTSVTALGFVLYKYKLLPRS

[2] = biological target: T2, Amine oxidase [flavin-containing] B (Homo sapiens, UniProt P27338); assay: Inhibition of human recombinant MAOB assessed as reduction in H2O2 production from p-tyramine incubated for 15 mins by Amplex red reagent based fluorimetric method
T2 sequence (P27338 whole entry): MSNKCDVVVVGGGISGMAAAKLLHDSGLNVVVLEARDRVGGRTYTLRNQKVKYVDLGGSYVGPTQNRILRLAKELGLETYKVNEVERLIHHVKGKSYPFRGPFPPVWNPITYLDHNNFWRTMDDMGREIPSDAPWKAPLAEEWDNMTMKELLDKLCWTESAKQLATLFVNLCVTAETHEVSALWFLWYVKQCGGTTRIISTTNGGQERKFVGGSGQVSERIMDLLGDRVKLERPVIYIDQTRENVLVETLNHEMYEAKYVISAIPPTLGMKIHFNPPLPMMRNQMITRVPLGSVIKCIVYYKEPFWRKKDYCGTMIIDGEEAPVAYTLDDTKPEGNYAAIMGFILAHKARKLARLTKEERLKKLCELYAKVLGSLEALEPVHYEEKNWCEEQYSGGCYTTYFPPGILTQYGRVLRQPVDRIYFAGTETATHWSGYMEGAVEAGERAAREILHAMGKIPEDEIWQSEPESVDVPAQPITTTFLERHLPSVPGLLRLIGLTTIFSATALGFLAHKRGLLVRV

Homo sapiens = species on record: Homo sapiens; assay: Selectivity index, ratio of IC50 for human recombinant MAOA to IC50 for human recombinant MAOB

## COc1c(OC/C=C(\C)C[C@@H]2C=C(CCC(N)=O)C(=O)O2)ccc2ccc(=O)oc12
[1]
  inhibition (INH): Not Active
[2]
  IC50: 144 nM
Homo sapiens
  Ratio IC50: > 696
